In US4492693A, “Benzothienylglycyl cephalosporin derivatives” (priority 1983, dated 1985):
Where two headings read alike, the source gives them in different places.

Columns and labels:
Type in all cases: cell-based
Staph. aureus [1] = assay: Agar Dilution MIC (Table I); conditions: Staphylococcus aureus, read-out: Agar Dilution MIC
Staph. epi [2] = assay: Agar Dilution MIC (Table I); conditions: read-out: Agar Dilution MIC
Strep. A = assay: Agar Dilution MIC (Table I); conditions: strain C203; read-out: Agar Dilution MIC
Strep. PN = assay: Agar Dilution MIC (Table I); conditions: strain PARK
Strep. D = assay: Agar Dilution MIC (Table I); conditions: read-out: Agar Dilution MIC
Description: (§1) A typical and preferred compound provided by this invention is 7-(3-benzothienyl)glycylamido-3-methyl-3-cephem-4-carboxylic acid, the compound illustrated in Example 9. The antibacterial activity of this compound has been determined in standard in vitro agar dilution assays against a variety of gram positive and gram negative microorganism. The following Tables present typical minimum inhibitory concentrations (MIC's) in μg/ml for several compounds of the invention when evaluated against the indicated microorganisms. MIC's for several known compounds are also presented for comparison.
Agar Dilution MIC (μg/ml)

H. influ. = assay: Agar Dilution MIC (Table I); conditions: read-out: Agar Dilution MIC
E. coli = assay: Agar Dilution MIC (Table I); conditions: Escherichia coli
Klebsiella = assay: Agar Dilution MIC (Table I); conditions: Klebsiella, read-out: Agar Dilution MIC
H. influenzae = assay: Expanded Spectrum MIC (Table II); conditions: Haemophilus influenzae
Description: as §1
(§2) Expanded Spectrum MIC (μg/ml)

Staph. aureus [3] = assay: Expanded Spectrum MIC (Table II); conditions: Staphylococcus aureus
Description: as §1, §2

Staph. epi [4] = assay: Expanded Spectrum MIC (Table II)
Description: as §1, §2

Bacteroides corrodens = assay: Susceptibility of Anaerobic Bacteroides Isolates by the Agar-Dilution Method (Table III); conditions: Eikenella corrodens; strain 1874; readings 24 hrs. after incubation
Description: as §1
(§3) Susceptibility of Anaerobic Bacteroides Isolates by the
(§4) Agar-Dilution Method MIC (μg/ml) readings 24 hrs. after incubation

Bacteroides fragilis = assay: as above; conditions: 24 h
Description: as §1, §3, §4

[5] = test system: Bacteroides thetaiotaomicron; assay: as above; conditions: 24 h
Description: as §1, §3, §4

Measured: MIC

CC1=C(C(=O)O)N2C(=O)C(NC(=O)[C@H](N)c3csc4ccc(F)cc34)C2SC1 (stereo partly drawn) [Ex. 18, D-7-(5-Fluoro-3-benzothienyl)glycylamido-3-methyl-3-cephem-4-carboxylic acid]
128 µg/mL: Strep. D; strain 2041 | Strep. D; strain X66 | E. coli; strain N10 | Klebsiella; strain KAE | Klebsiella; strain X68 | Bacteroides fragilis; strain 111, readings 24 hrs. after incubation
2 µg/mL: H. influenzae; strain C.L. | H. influenzae; strain HESS | Staph. aureus [3]; strain S226 | Staph. aureus [3]; strain S227 | Staph. aureus [3]; strain S229 | Staph. aureus [3]; strain S234 | Staph. aureus [3]; strain S237 | Staph. aureus [3]; strain S238 | Staph. aureus [3]; strain S239 | Staph. epi [4]; strain 285
8 µg/mL: Staph. aureus [1]; strain V41 | Staph. epi [2]; strain EPI1 | Staph. epi [4]; strain EPI1 | Bacteroides fragilis; strain 9, readings 24 hrs. after incubation
32 µg/mL: [5]; strain 1900A, readings 24 hrs. after incubation
4 µg/mL: Staph. epi [2]; strain 222 | H. influ.; strain C.L. | Klebsiella; strain X26 | Staph. epi [4]; strain 269 | Staph. epi [4]; strain 270
1 µg/mL: Staph. aureus [1]; strain X1.1 | Strep. PN | H. influ.; strain 76 | H. influenzae; strain 76 | H. influenzae; strain 105 | H. influenzae; strain 158 | H. influenzae; strain 164 | H. influenzae; strain 169 | H. influenzae; strain 171 | H. influenzae; strain 312 | H. influenzae; strain 1930 | H. influenzae; strain 4842 | H. influenzae; strain M370 | H. influenzae; strain M371 | Staph. aureus [3]; strain S224 | Staph. aureus [3]; strain S225 | Staph. aureus [3]; strain S228 | Staph. aureus [3]; strain S230 | Staph. aureus [3]; strain S231 | Staph. epi [4]; strain 219 | Staph. epi [4]; strain 286
0.25 µg/mL: Strep. A | H. influenzae; strain 1683
64 µg/mL: Staph. aureus [1]; strain X400 | E. coli; strain EC14 | E. coli; strain TEM | H. influenzae; strain M366 | H. influenzae; strain R465 | H. influenzae; strain STEL | Bacteroides corrodens | Bacteroides fragilis; strain 103, readings 24 hrs. after incubation
16 µg/mL: Bacteroides fragilis; strain 104, readings 24 hrs. after incubation | Bacteroides fragilis; strain 106, readings 24 hrs. after incubation | Bacteroides fragilis; strain 107, readings 24 hrs. after incubation | Bacteroides fragilis; strain 108, readings 24 hrs. after incubation | Bacteroides fragilis; strain 110, readings 24 hrs. after incubation | Bacteroides fragilis; strain 1877, readings 24 hrs. after incubation | [5]; strain 1438, readings 24 hrs. after incubation
